Values belong to the molecule of their own block, whether it stands above or below them.
How the values were obtained:
[1] = target: CK2α/CK2β interaction (Homo sapiens, UniProt P68400); assay: In vitro CK2α/CK2β interaction assay ([35S]methionine-labeled CK2α, plate-bound MBP-CK2β); assay type: binding
Procedure: The CK2α/CK2β interaction assay involved competition between plate-bound MBP-CK2β and the selected compounds for binding to soluble [^35S]methionine-labeled CK2α (10^5 cpm). The assays were performed in reacti-Bind streptavidin-coated high-binding-capacity 96-well plates (Pierce) in which each well was coated with 250 ng of biotinylated MBP-CK2β in 50 mM Tris/HCl, pH 7.2, and 0.4 M NaCl buffer. The compounds and [^35S]methionine-labeled CK2α were added in each well in the same buffer, incubated for 1 h at room temperature and triple-washed, after which the radioactivity of each well was determined using a scintillation counter. Positive control (100% competition) was determined with a 10-fold molar excess of untagged CK2α, and negative control (0% competition) was performed in the absence of competitor[35].

[2] = target: CK2α (Homo sapiens, UniProt P68400); assay: STD-NMR competition with AMPPNP; assay type: binding
Procedure: (§1) Standard 1D, STD, and WaterLOGSY NMR spectra were acquired at 20 °C with a Bruker 600 MHz NMR spectrometer, equipped with a Z-gradient cryoprobe. WaterLOGSY mixing time was 1.5 s. Both STD and WaterLOGSY spectra were recorded for each sample. WaterLOGSY spectra in the absence of protein receptor were recorded with 300 µM compound to assess the compound solubility. All the NMR experiments were performed at 293 K with excitation sculpting to suppress peaks from water. 1D and STD experiments were performed using identical experimental conditions (spin lock, interscan delays), and parameters for the STD experiments (saturation frequency and saturation time) were identical for all samples. […] NMR tubes contained 2 μM CK2 with 300 μM of 4.
Fig. S8. NMR-based investigation of the binding of compound 4 to CK2α. (a) NMR-STD epitope mapping observed for compound 4. […] Both compounds bind simultaneously to CK2α.

[3] = Solubility in the protein buffer (WaterLOGSY NMR); assay type: physicochemical; conditions: relative to the other compounds
Procedure: as §1

[4] = target: T1, CK2 subunit association in MCF10A cells (Homo sapiens, UniProt P68400); assay: Anti-CK2β immunoprecipitation from treated MCF10A cells; assay type: cell-based; conditions: 75 μM, 4 h; CK2β-dependent and CK2β-independent substrate; vs DMSO
T1 construct: endogenous in cells; host or cells: MCF10A
Procedure: The transient nature of the CK2 holoenzyme has been highlighted by the elucidation of its structure. Furthermore, analysis of the spatiotemporal organization of individual CK2 subunits in living cells has shown that they are highly dynamic[10],[12]. Thus, we evaluated the effect of 6 on the CK2 subunit association in human mammary epithelial cells, using two independent strategies. First, CK2β was immunoprecipitated from extracts of MCF10A cells treated with DMSO as control or 75 μM of 6, and the amount of CK2α or CK2 catalytic activity recovered in the immunoprecipitates were analyzed by western blot and CK2 activity assay.
Anti-CK2β immunoprecipitates were prepared from MCF10A cells incubated with DMSO (0.5%) or 75 μM 6 for 4 h. The corresponding immunoprecipitates were analyzed for the presence of CK2 subunits by Western blot (a) and quantified in (b) or for CK2 activity with CK2β-independent and CK2β-dependent peptide substrate (c). […] (d) In situ proximity ligation images of MCF10A cells incubated with 50 μM 6 for 3 h. (e) Number of fluorescent dots per cell was quantified using the BlobFinder software. n = 120 cells from two independent experiments. Mann Whitney test was used and results were found significant (*p-value = 0.0003 and **p-value = 0.044). TEXT PRINTED IN THE PICTURE: (a) 6: Ratio CK2α/CK2β relative to control: 0.77 (75 μM)

[5] = test system: survivin expression in MCF10A cells; assay: Western blot of survivin expression; assay type: cell-based, human; conditions: 24 h, 25 μM 6 or 30 μM TAT-Pc
Procedure: Figure 5 Cellular effects of compounds 3, 4 and 6. MCF10A cells were incubated for 24 h with either DMSO or 30 μM TAT or 30 μM TAT-Pc or 25 μM 6 (a) or with increasing concentrations of 6 (b) or 3 (c). MCF10A cells were incubated for 48 h with either DMSO or with increasing concentrations of 3 or 6 (d). Cells were then lysed and analyzed by western blot with the indicated antibodies. Blot images are representative of at least three independent experiments. Uncropped blots are shown in Supplementary Fig. S16. (e) MDA-MB231 cells were treated with 40 μM 6 (⚬), 4 (▴) or 3 (X). (f) MDA-MB231 cells were treated for 30 h with increasing concentrations of 6 (⚬) or 4 (▴). Insert: cells were treated for 30 h with 80 μM 6 or 10 μM CX-4945. […] Cell death was automatically quantified from images captured every 3 h for the duration of the experiments using an Essen IncuCyte Zoom live-cell microscopy incubator. […]
Cells were lysed in RIPA buffer (10 mM Tris-HCl pH 7.4, 150 mM NaCl, 1% Triton X-100, 0.1% SDS, 0.5% DOC and 1 mM EDTA) containing both protease- and phosphatase-inhibitor cocktails (Sigma-Aldrich; P8340, P2850, P5726). Cell homogenates were quantified using BCA protein Assay kit (Thermo Scientific). […] Luminata Forte Western HRP substrate (Millipore) was added and membranes were read with Fusion Fx7 (PerkinElmer). […] Images were analyzed and band intensities were quantified using ImageJ software. […]

Chain of CK2α/CK2β interaction (P68400 whole entry): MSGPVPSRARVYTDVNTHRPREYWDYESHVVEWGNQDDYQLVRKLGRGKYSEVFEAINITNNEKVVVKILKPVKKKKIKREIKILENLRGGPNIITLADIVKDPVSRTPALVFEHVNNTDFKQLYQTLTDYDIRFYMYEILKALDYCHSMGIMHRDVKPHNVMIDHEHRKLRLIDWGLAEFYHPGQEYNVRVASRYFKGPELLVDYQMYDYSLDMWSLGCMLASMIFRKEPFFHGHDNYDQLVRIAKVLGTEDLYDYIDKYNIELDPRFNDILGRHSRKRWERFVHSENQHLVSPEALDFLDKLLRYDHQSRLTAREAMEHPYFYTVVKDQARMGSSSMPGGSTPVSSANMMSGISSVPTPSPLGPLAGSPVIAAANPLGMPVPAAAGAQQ
T1 sequence (P68400 whole entry): as above
Chain of CK2α (P68400 whole entry): as above

SMILES: COc1[nH]c2ccc(F)cc2c1C(=O)OCC1CCN(CCNS(C)(=O)=O)CC1 [Compound 1]
- IC50 [1]: ~80 µM
- reduction of bound radioactive CK2α ([1]; single dose 300 μM): about 75%

- displacement of AMPPNP upon compound binding [2]: not displaced
- solubility in the protein buffer [3]: highest solubility
SMILES: O=C(OCC1CCN(CCNS(=O)(=O)c2ccccc2)CC1)c1c[nH]c2ccccc12 [Compound 4, (1-(2-(Phenylsulfonamido)ethyl)piperidin-4-yl)methyl 1H-indole-3-carboxylate]

SMILES: COc1[nH]c2ccc(F)cc2c1C(=O)OCC1CCN(CCNS(=O)(=O)c2ccccc2)CC1.Cl [Compound 6]
- CK2 activity in anti-CK2β precipitates [4]: significantly lower
- survivin expression [5]: decreased

From publication PMC6828666, “Discovery of holoenzyme-disrupting chemicals as substrate-selective CK2 inhibitors” (Scientific Reports, 2019)
